Reference: patent publication US20050014810A1, “Use of substituted 2 phenylbenzimidazoles as medicaments” (Boehringer Ingelheim International GmbH, priority 2003, published 2005)
Where a name gives a salt, the structure may show the parent alone.

Row | SMILES | melting point
1 | CC(C)c1ccc2c(c1)CC[C@H]1[C@](C)(Cn3c(-c4ccc(CCC(=O)O)cc4)nc4cc(-c5ccccc5)ccc43)CCC[C@]21C | 298 to 300 °C
2 | CC(C)c1ccc2c(c1)CC[C@H]1[C@](C)(Cn3c(-c4cccc(NC(=O)CC(=O)O)c4)nc4cc(-c5ccccc5)ccc43)CCC[C@]21C | 210 to 215 °C
3 | CC(C)c1ccc2c(c1)CC[C@H]1[C@](C)(Cn3c(-c4cccc(OCCCC(=O)O)c4)nc4cc(-c5ccccc5)ccc43)CCC[C@]21C | 144 to 151 °C
4 | CC(=O)Nc1cccc(-c2ccc3c(c2)nc(-c2cccc(OCC(=O)O)c2)n3C[C@]2(C)CCC[C@]3(C)c4ccc(C(C)C)cc4CC[C@@H]23)c1 | 175 °C (dec.)
5 | CC(C)c1ccc2c(c1)CC[C@H]1[C@](C)(Cn3c(-c4cccc(OCC(=O)O)c4)nc4cc(-c5ccccc5N)ccc43)CCC[C@]21C | 186 to 190 °C
6 | CC(C)c1ccc2c(c1)CC[C@H]1[C@](C)(Cn3c(-c4cccc(NC(=O)Cc5nnn[nH]5)c4)nc4cc(-c5ccccc5)ccc43)CCC[C@]21C | 200 °C
7 | CC(C)c1ccc2c(c1)CC[C@H]1[C@](C)(Cn3c(-c4cc(OCC(=O)O)ccc4NC(=O)C(F)(F)F)nc4cc(-c5ccccc5)ccc43)CCC[C@]21C | 168 to 172 °C
8 | CC(C)c1ccc2c(c1)CC[C@H]1[C@](C)(Cn3c(-c4cccc(NC(=O)C(=O)O)c4)nc4cc(-c5ccccc5)ccc43)CCC[C@]21C | 235 °C
9 | CC(C)c1ccc2c(c1)CC[C@H]1[C@](C)(Cn3c(-c4cccc(OCC(=O)O)c4)nc4cc(-c5cccc([NH+]([O-])O)c5)ccc43)CCC[C@]21C (stereo partly shown) | 258 to 262 °C
10 | CC(C)c1ccc2c(c1)CC[C@H]1[C@](C)(Cn3c(-c4cc(OCC(=O)O)ccc4N)nc4cc(-c5ccccc5)ccc43)CCC[C@]21C | > 295 °C (dec.)
11 | CC(C)c1ccc2c(c1)CC[C@H]1[C@](C)(Cn3c(-c4cccc(OCC(=O)O)c4)nc4cc(-c5cccc(NS(C)(=O)=O)c5)ccc43)CCC[C@]21C | 166 °C (dec.)
12 | CC(=O)Nc1ccc(OCC(=O)O)cc1-c1nc2cc(-c3ccccc3)ccc2n1C[C@]1(C)CCC[C@]2(C)c3ccc(C(C)C)cc3CC[C@@H]12 | 179 °C
13 | CC(C)c1ccc2c(c1)CC[C@H]1[C@](C)(Cn3c(-c4cccc(N5CCC(C(=O)O)CC5)c4)nc4cc(-c5ccccc5)ccc43)CCC[C@]21C | 166 to 178 °C
14 | CC(C)c1ccc2c(c1)CC[C@H]1[C@](C)(Cn3c(-c4cccc(OCC(=O)O)c4)nc4cc(-c5cccc(O)c5)ccc43)CCC[C@]21C | 238 to 242 °C
15 | COc1cc(OCCCC(=O)O)ccc1-c1nc2cc(/C=C/c3ccccc3)ccc2n1C[C@]1(C)CCC[C@]2(C)c3ccc(C(C)C)cc3CC[C@@H]12 | 59 to 72 °C
16 | CC(C)c1ccc2c(c1)CC[C@H]1[C@](C)(Cn3c(-c4cccc(OCC(=O)O)c4)nc4cc(-c5cccc(CN6CCOCC6)c5)ccc43)CCC[C@]21C (as salt: trifluoroacetate) | 133 °C (dec.)
17 | COc1cc(OCCCC(=O)O)ccc1-c1nc2cc(-c3cccc(C#N)c3)ccc2n1C[C@]1(C)CCC[C@]2(C)c3ccc(C(C)C)cc3CC[C@@H]12 | 185 °C
18 | CC(C)c1ccc2c(c1)CC[C@H]1[C@](C)(Cn3c(-c4cccc(NCC(=O)O)c4)nc4cc(-c5ccccc5)ccc43)CCC[C@]21C | 180 °C
19 | CC(C)c1ccc2c(c1)CC[C@H]1[C@](C)(Cn3c(-c4cccc(OCC(=O)O)c4)nc4cc(-c5cccc(CN(C)C)c5)ccc43)CCC[C@]21C (as salt: trifluoroacetate) | 127 °C
